{"source": "patent US6730326B2", "about": "“Thermodynamically stable modification of 1-(4-carbazolyl-oxy-3[2-(2-methoxyphenoxy)-ethylamino]-2-propanol process for its preparation and pharmaceutical compositions containing it” (Roche Diagnostics GmbH, priority 1997, dated 2004)", "format": "physicochemical", "description": "A 1:1 mixture of Form I and Form II was suspended in isopropanol and agitated with a magnetic stirrer for 18 h in a tightly sealed glass […]. […] Subsequently the sample was filtered with a micro glass filter funnel (G3), dried and evacuated.", "data": [{"smiles": "COc1ccccc1OCCNCC(O)COc1cccc2[nH]c3ccccc3c12", "note": "(racemic) [Form I, (±)1-(4-carbazolyloxy)-3-[2-(2-methoxyphenoxy)ethylamno]-2-propanole]", "values": [{"measurement": "thermodynamic stability of the modification", "result": "thermodynamically stable form"}]}]}
